Read-outs that look alike come from different tables or passages of the source.
Experiments:
[1] = Content determination after acceleration storage; format: physicochemical; details: C66 substance Batch C66-S-ZS-03-09, comparison
Method: (§1) Acceleration test conditions: aluminum foil bag packaging, sealed, 40±2° C., 75%±5% RH, sample placement;
(§2) Samples: Solid dispersions obtained in Examples 1, 2, and 3.

[2] = Solubility of C66 in buffer solutions of different pH (37° C. shaker 24 hours, HPLC); format: physicochemical; details: buffer solutions pH 1.0, 1.2, 2.0, 4.0, 5.0, 6.0, 6.8, 7.4
Method: In addition, the inventors also prepared a series of buffer solutions (pH 1.0, pH 1.2, pH 2.0, pH 4.0, pH 5.0, pH 6.0, pH 6.8, and pH 7.4) according to the recommended conditions of the Pharmacopoeia, to investigate the solubility of C66 under different pH conditions. Excess C66 powder was added to each of the solutions to obtain a mixture, the mixture was shaken in a 37° C. shaker for 24 hours. The C66 concentration was then measured using high-performance liquid chromatography.

[3] = Solubility of C66 in solvents (Table 1); format: physicochemical
[4] = Related substances after acceleration storage; format: physicochemical; details: C66 substance Batch C66-S-ZS-03-09, comparison
Method: as §1, §2

[5] = Saturated concentration of C66 in SDS and Tween 80 solutions; format: physicochemical
Source text: The inventors also investigated the solubility of C66 in sodium dodecyl sulfate (SDS) and Tween 80 (T80). According to the recommended usage of surfactants specified in Handbook of Pharmaceutical Excipients, and recommendations from the National Medical Products Administration of China and the U.S. Food and Drug Administration (FDA), a proportion of surfactants in the solution is 1%-3%.

[6] = Permeability of C66 (previous studies); format: in vitro ADME
[7] = Cumulative dissolution of pulverized C66 substance in surfactant aqueous solutions; format: physicochemical; details: 60 min
Method: None of them reached the quality control requirement that the cumulative dissolution rate could be equal to or greater than 85% in 30 min-60 min.

[8] = in vivo; details: male, Beagle, dog
[9] = male, Beagle, dog, in vivo

Content [1]: 98.5%
solubility under different pH conditions [2]: not dissolved
Solubility of C66 ([3]; Ethanol (95%)): Slightly soluble
Solubility of C66 ([3]; Hydrochloric acid solution with a pH of 1.0): Almost insoluble or insoluble
Solubility of C66 ([3]; Phosphate buffer with a pH of 6.8): Almost insoluble or insoluble
Solubility of C66 ([3]; Purified water): Almost insoluble or insoluble
water solubility ([3]; previous studies): poor
Isomer [4]: 0.038%
Other largest unknown impurities [4]: 0.025%
Process impurities 1 [4]: 0.188%
Process impurities 2 [4]: 0.385%
Saturated concentration of C66 ([5]; 1% SDS solution): 5.158 µg/mL
Saturated concentration of C66 ([5]; 1% Tween 80 solution): 1.410 µg/mL
Saturated concentration of C66 ([5]; 2% SDS solution): 9.046 µg/mL
Saturated concentration of C66 ([5]; 2% Tween 80 solution): 3.385 µg/mL
Saturated concentration of C66 ([5]; 3% SDS solution): 22.484 µg/mL
Saturated concentration of C66 ([5]; 3% Tween 80 solution): 15.231 µg/mL
permeability [6]: good
cumulative dissolution rate ([7]; 3% sodium dodecyl sulfate aqueous solution, particle size D0.9<15 μm): 25.3%
maximum cumulative dissolution rate ([7]; different concentrations of CTAB aqueous solution): 18.9%
cumulative dissolution rate ([7]; different concentrations of triton X-100 aqueous solution): 26.3%
AUC(0-t) ([8]; iv, 1 mg/kg, AUC0-t): 162 ng·h/mL
AUC(0-t) ([8]; iv, 1 mg/kg, AUC0-t Mean): 148 ng·h/mL
AUC(0-inf) ([8]; iv, 1 mg/kg, AUC0-∞): 163 ng·h/mL
AUC(0-inf) ([8]; iv, 1 mg/kg, AUC0-∞ Mean): 149 ng·h/mL
Cmax ([8]; iv, 1 mg/kg, Cmax): 334 ng/mL
Cmax ([8]; iv, 1 mg/kg, Cmax Mean): 348 ng/mL
MRT last ([8]; iv, 1 mg/kg, MRTlast): 41 min
MRT last ([8]; iv, 1 mg/kg, MRTlast Mean): 35.9 min
Tmax ([8]; iv, 1 mg/kg, Tmax): 4.98 min
Tmax ([8]; iv, 1 mg/kg, Tmax Mean): 4.98 min
half-life ([8]; iv, 1 mg/kg, half-life (t1/2)): ~30 min
half-life ([8]; iv, 1 mg/kg, t1/2): 33.7 min
half-life ([8]; iv, 1 mg/kg, t1/2 Mean): 30.4 min
AUC(0-t) ([8]; po, 3 mg/kg, AUC0-t Mean): 31.8 ng·h/mL
AUC(0-inf) ([8]; po, 3 mg/kg, AUC0-∞ Mean): 35.8 ng·h/mL
Cmax ([8]; po, 3 mg/kg, Cmax Mean): 15.8 ng/mL
MRT last ([8]; po, 3 mg/kg, MRTlast): 113 min
MRT last ([8]; po, 3 mg/kg, MRTlast Mean): 103 min
Tmax ([8]; po, 3 mg/kg, Tmax): 120 min
Tmax ([8]; po, 3 mg/kg, Tmax Mean): 90 min
half-life ([8]; po, 3 mg/kg, half-life (t1/2)): ~60 min
half-life ([8]; po, 3 mg/kg, t1/2 Mean): 53.5 min
Tmax ([8]; po, 3 mg/kg, time to reach peak concentration (Tmax)): ~60 min
Absolute bioavailability (AUC0-t) [9]: 7.16%
ratio of AUC0-t to AUC0-∞ ([9]; iv, 1 mg/kg): 99%
Relative bioavailability (AUC0-t) ([9]; po, 3 mg/kg): 15.02%
ratio of AUC0-t to AUC0-∞ ([9]; po, 3 mg/kg): 88%
Compound: O=C1/C(=C/c2ccccc2C(F)(F)F)CCC/C1=C\c1ccccc1C(F)(F)F [Example C66]

Reference: patent publication US20260151354A1, “SOLID DISPERSION OF CURCUMIN DERIVATIVE METHOD FOR PREPARING SAME, AND USE THEREOF” (WENZHOU MEDICAL UNIVERSITY, priority 2022, published 2026)
